28 compounds from US20180093956A1, “SUBSTITUTED PHTHALAZINES” (AbbVie Inc., priority 2015, published 2018) can be followed below.

Each structure is given as a SMILES string.

The assay concerns the target SUV420H1 enzyme (Homo sapiens, UniProt Q4FZB7). Nature of the assay: TR-FRET SAH SUV420H1 enzyme inhibition assay. Format: biochemical. The following applies: Histone Peptide H4(8-30)me1 and SAM, TR-FRET detection of SAH, read-out: TR-FRET SAH_SUV420H1 IC50. How it is done:
Test compounds were dispensed by a Labcyte Echo in 384-well low volume assay plates with 3-fold serial dilutions from 50 μM to 0.00075 μM. 5 μL of SUV420H1 enzyme (Abbvie) at 90 nM was added to all wells except for the no enzyme control wells and incubated for 30 minutes at room temperature before 5 μL of Histone Peptide H4(8-30)me1 (Anaspec) at 5 μM and SAM at 4 μM was added to all wells. The plates were incubated in a humidified chamber overnight at room temp and then 10 μL of the detection reagent that contained RIPA buffer (50 mM Tris-HCl, pH 8.0, 150 mM sodium chloride, 1.0% Igepal CA-630 (NP-40), 0.5% sodium deoxycholate and 0.1% sodium dodecyl sulfate) (Sigma) with 2 nM of Terbium chelate anti S-adenosyl-L-homocysteine (SAH) (Abbvie) antibody and Oregon Green labeled SAH at 4 nM was added. The plates were further incubated for 4 hours at room temperature. The plates were read in a Perkin Elmer Envision using a TR-FRET protocol with Excitation set at 335 nm and Emission at 520 and 495 nm. To generate dose response curves the data is normalized to percent inhibition by setting the average of the plus and minus enzyme control wells to 0% and 100% inhibition respectively. The ICso values for the compounds are generated by fitting the normalized data with Accelrys Assay Explorer 3.3 to a sigmoidal curve model using […], Y=(100*x^n)/(K^n+x^n), where Y is the measured response, x is the compound concentration, n is the Hill Slope and K is the IC50 and the lower and higher asymptotes are constrained to 0 and 100 respectively.
In general terms: TR-FRET usually uses a lanthanide donor and a delayed reading to cut background.

Chain of SUV420H1 enzyme (Q4FZB7 whole entry): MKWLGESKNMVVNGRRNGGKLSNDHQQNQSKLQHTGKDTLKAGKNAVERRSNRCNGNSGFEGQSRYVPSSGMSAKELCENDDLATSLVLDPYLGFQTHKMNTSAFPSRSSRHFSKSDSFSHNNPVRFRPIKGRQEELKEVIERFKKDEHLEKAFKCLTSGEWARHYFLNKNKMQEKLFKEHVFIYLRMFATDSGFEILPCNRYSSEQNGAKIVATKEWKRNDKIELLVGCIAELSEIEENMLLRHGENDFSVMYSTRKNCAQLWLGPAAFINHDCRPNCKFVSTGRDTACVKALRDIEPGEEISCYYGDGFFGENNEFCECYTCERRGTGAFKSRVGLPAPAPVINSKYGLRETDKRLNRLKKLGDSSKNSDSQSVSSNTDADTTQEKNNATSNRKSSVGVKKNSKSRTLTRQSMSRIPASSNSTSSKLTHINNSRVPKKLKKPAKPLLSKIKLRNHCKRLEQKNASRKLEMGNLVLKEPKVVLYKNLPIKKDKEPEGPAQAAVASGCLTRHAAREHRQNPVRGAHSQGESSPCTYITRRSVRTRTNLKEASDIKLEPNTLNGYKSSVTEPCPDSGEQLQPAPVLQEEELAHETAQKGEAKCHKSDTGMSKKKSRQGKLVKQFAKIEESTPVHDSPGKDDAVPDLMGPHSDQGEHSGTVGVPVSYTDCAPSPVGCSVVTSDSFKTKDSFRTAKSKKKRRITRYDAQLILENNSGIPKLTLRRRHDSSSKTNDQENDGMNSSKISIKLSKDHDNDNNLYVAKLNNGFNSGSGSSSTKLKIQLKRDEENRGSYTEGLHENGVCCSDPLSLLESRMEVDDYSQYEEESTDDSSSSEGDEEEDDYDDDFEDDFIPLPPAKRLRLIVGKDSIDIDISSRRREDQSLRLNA

For `Clc1cc2c(NC3CCCC3)nnc(-c3ccc(N4CCCC4)nc3)c2cc1Cl` [Example 31, 6,7-dichloro-N-cyclopentyl-4-[6-(pyrrolidin-1-yl)pyridin-3-yl]phthalazin-1-amine], the IC50 was 2.74 µM.
For `CN(C)c1cc(-c2nnc(NC3CCCC3)c3cc(Cl)c(Cl)cc23)ccn1` [Example 32, 6,7-dichloro-N-cyclopentyl-4-[2-(dimethylamino)pyridin-4-yl]phthalazin-1-amine] the value was 11.2 µM; for `NC1CCN(c2ccc(-c3nnc(NC4CCCC4)c4cc(Cl)c(Cl)cc34)cn2)C1` (stereo not shown) [Example 33, 4-[6-(3-aminopyrrolidin-1-yl)pyridin-3-yl]-6,7-dichloro-N-cyclopentylphthalazin-1-amine], 1.24 µM.
The figure for `OC1CCN(c2ccc(-c3nnc(NC4CCCC4)c4cc(Cl)c(Cl)cc34)cn2)C1` (stereo not shown) [Example 34, 1-{5-[6,7-dichloro-4-(cyclopentylamino)phthalazin-1-yl]pyridin-2-yl}pyrrolidin-3-ol] is 2.73 µM.
The figure for `CN(CCO)c1cc(-c2nnc(NC3CCCC3)c3cc(Cl)c(Cl)cc23)ccn1` [Example 35, 2-[{4-[6,7-dichloro-4-(cyclopentylamino)phthalazin-1-yl]pyridin-2-yl}(methyl)amino]ethanol] is 0.808 µM.
In the case of `OCCNc1cc(-c2nnc(NC3CCCC3)c3cc(Cl)c(Cl)cc23)ccn1` [Example 39, 2-({4-[6,7-dichloro-4-(cyclopentylamino)phthalazin-1-yl]pyridin-2-yl}amino)ethanol], the IC50 was 3.49 µM.
The figure for `O=S1(=O)CCN(c2ccc(-c3nnc(NC4CCCC4)c4cc(Cl)c(Cl)cc34)cn2)CC1` [Example 41, 6,7-dichloro-N-cyclopentyl-4-[6-(1,1-dioxidothiomorpholin-4-yl)pyridin-3-yl]phthalazin-1-amine] is 0.805 µM.
As to `O=C(O)Cn1cc(-c2nnc(NC3CCCC3)c3cc(Cl)c(Cl)cc23)cn1` [Example 44, {4-[6,7-dichloro-4-(cyclopentylamino)phthalazin-1-yl]-1H-pyrazol-1-yl}acetic acid], the IC50 is 0.255 µM.
`CCNC(=O)c1nnc(NC2CCCC2)c2cc(Cl)c(Cl)cc12` [Example 45, 6,7-dichloro-4-(cyclopentylamino)-N-ethylphthalazine-1-carboxamide]: the IC50 was 0.197 µM.
The figure for `CN(CCO)C(=O)c1nnc(NC2CCCC2)c2cc(Cl)c(Cl)cc12` [Example 46, 6,7-dichloro-4-(cyclopentylamino)-N-(2-hydroxyethyl)-N-methylphthalazine-1-carboxamide] is 5.46 µM; for `O=C(c1nnc(NC2CCCC2)c2cc(Cl)c(Cl)cc12)N1CCCC1` [Example 47, [6,7-dichloro-4-(cyclopentylamino)phthalazin-1-yl](pyrrolidin-1-yl)methanone] it is 3.78 µM.
On to `O=C(c1nnc(NC2CCCC2)c2cc(Cl)c(Cl)cc12)N1CCC(O)C1` (stereo not shown) [Example 48, [6,7-dichloro-4-(cyclopentylamino)phthalazin-1-yl](3-hydroxypyrrolidin-1-yl)methanone], for which the IC50 came to 4.16 µM.
For `CN1CCN(C(=O)c2nnc(NC3CCCC3)c3cc(Cl)c(Cl)cc23)CC1` [Example 49, [6,7-dichloro-4-(cyclopentylamino)phthalazin-1-yl](4-methylpiperazin-1-yl)methanone] the value was 6.09 µM.
The figure for `O=C(c1nnc(NC2CCCC2)c2cc(Cl)c(Cl)cc12)N1CCS(=O)(=O)CC1` [Example 50, [6,7-dichloro-4-(cyclopentylamino)phthalazin-1-yl](1,1-dioxidothiomorpholin-4-yl)methanone] is 5.06 µM; for `O=C(c1nnc(NC2CCCC2)c2cc(Cl)c(Cl)cc12)N1CCOCC1` [Example 51, [6,7-dichloro-4-(cyclopentylamino)phthalazin-1-yl](morpholin-4-yl)methanone] it is 8.21 µM; for `O=C(c1nnc(NC2CCCC2)c2cc(Cl)c(Cl)cc12)N1CCC(O)CC1` [Example 52, [6,7-dichloro-4-(cyclopentylamino)phthalazin-1-yl](4-hydroxypiperidin-1-yl)methanone] it is 12.8 µM.
For `O=C(Nc1ccccc1)c1nnc(NC2CCCC2)c2cc(Cl)c(Cl)cc12` [Example 53, 6,7-dichloro-4-(cyclopentylamino)-N-phenylphthalazine-1-carboxamide] the value was 1.34 µM; for `O=C(Cn1cc(-c2nnc(NC3CCCC3)c3cc(Cl)c(Cl)cc23)cn1)N1CCCC1` [Example 58, 2-{4-[6,7-dichloro-4-(cyclopentylamino)phthalazin-1-yl]-1H-pyrazol-1-yl}-1-(pyrrolidin-1-yl)ethanone], 6.01 µM.
For the compound `O=C(Cn1cc(-c2nnc(NC3CCCC3)c3cc(Cl)c(Cl)cc23)cn1)N1CCC(O)C1` (stereo not shown) [Example 59, 2-{4-[6,7-dichloro-4-(cyclopentylamino)phthalazin-1-yl]-1H-pyrazol-1-yl}-1-(3-hydroxypyrrolidin-1-yl)ethanone], the IC50 came to 0.766 µM.
For `O=C(Cn1cc(-c2nnc(NC3CCCC3)c3cc(Cl)c(Cl)cc23)cn1)N1CCS(=O)(=O)CC1` [Example 63, 2-{4-[6,7-dichloro-4-(cyclopentylamino)phthalazin-1-yl]-1H-pyrazol-1-yl}-1-(1,1-dioxidothiomorpholin-4-yl)ethanone] the value was 0.208 µM.
For `O=C(Cn1cc(-c2nnc(NC3CCCC3)c3cc(Cl)c(Cl)cc23)cn1)N1CCOCC1` [Example 65, 2-{4-[6,7-dichloro-4-(cyclopentylamino)phthalazin-1-yl]-1H-pyrazol-1-yl}-1-(morpholin-4-yl)ethanone] the value was 0.551 µM; for `CS(=O)(=O)N1CC=C(c2nnc(NC3CCCC3)c3cc(Cl)c(Cl)cc23)CC1` [Example 67, 6,7-dichloro-N-cyclopentyl-4-[1-(methylsulfonyl)-1,2,3,6-tetrahydropyridin-4-yl]phthalazin-1-amine], 0.448 µM.
For `O=S(=O)(C1CC1)N1CC=C(c2nnc(NC3CCCC3)c3cc(Cl)c(Cl)cc23)CC1` [Example 68, 6,7-dichloro-N-cyclopentyl-4-[1-(cyclopropylsulfonyl)-1,2,3,6-tetrahydropyridin-4-yl]phthalazin-1-amine] the value was 0.453 µM; for `O=S(=O)(c1ccccc1)N1CC=C(c2nnc(NC3CCCC3)c3cc(Cl)c(Cl)cc23)CC1` [Example 69, 6,7-dichloro-N-cyclopentyl-4-[1-(phenylsulfonyl)-1,2,3,6-tetrahydropyridin-4-yl]phthalazin-1-amine], 2.35 µM.
In the case of `O=C1CCC(C(=O)N2CC=C(c3nnc(NC4CCCC4)c4cc(Cl)c(Cl)cc34)CC2)C1` (stereo not shown) [Example 81, 3-({4-[6,7-dichloro-4-(cyclopentylamino)phthalazin-1-yl]-3,6-dihydropyridin-1(2H)-yl}carbonyl)cyclopentanone], the IC50 stood at 2.23 µM.
For `CS(=O)(=O)CC(=O)N1CC=C(c2nnc(NC3CCCC3)c3cc(Cl)c(Cl)cc23)CC1` [Example 82, 1-{4-[6,7-dichloro-4-(cyclopentylamino)phthalazin-1-yl]-3,6-dihydropyridin-1(2H)-yl}-2-(methylsulfonyl)ethanone], the IC50 turned out to be 0.681 µM.
The figure for `NC(=O)CC(=O)N1CC=C(c2nnc(NC3CCCC3)c3cc(Cl)c(Cl)cc23)CC1` [Example 83, 3-{4-[6,7-dichloro-4-(cyclopentylamino)phthalazin-1-yl]-3,6-dihydropyridin-1(2H)-yl}-3-oxopropanamide] is 0.816 µM; for `O=C(C1CCC(O)C1)N1CC=C(c2nnc(NC3CCCC3)c3cc(Cl)c(Cl)cc23)CC1` (stereo not shown) [Example 84, {4-[6,7-dichloro-4-(cyclopentylamino)phthalazin-1-yl]-3,6-dihydropyridin-1(2H)-yl}(3-hydroxycyclopentyl)methanone] it is 0.688 µM.

A word on the IC50: it is the concentration at which inhibition is half-maximal.
